Test results published in US20150296779A1, “SUBSTITUTED DIHYDROPYRIDINES FOR SOMATIC EMBRYOGENESIS IN PLANTS” (STICHTING DIENST LANDBOUWKUNDIG ONDERZOEK, priority 2012, published 2015).

Columns and labels:
Format in all cases: in vivo, Arabidopsis thaliana
[1] = system: Arabidopsis seedlings; assay: Dose-response analysis for somatic embryo induction in containers (circa 30 seeds in 30 ml medium; FIG. 2, FIG. 4)
Text: (§1) The chemical screen was based on a modified version of an Arabidopsis somatic embryogenesis protocol that uses germinated seeds as explants (see Kobayashi et al., 2010 Kobayashi T, Nagayama Y, Higashi K and Kobayashi M. (2010). Establishment of a tissue culture system for somatic embryogenesis from germinating embryos of Arabidopsis thaliana Plant Biotech. 27: 359-364). In the original protocol, seeds were germinated on solid medium for one day, then the embryos were removed from the seed coat and transferred to solid media containing 4.5 μM 2,4-D to stimulate somatic embryo development. In this example, the protocol is simplified by germinating and culturing the seeds continuously in liquid medium containing 1 μM 2,4-D. Under optimized culture conditions (circa 30 seeds in 30 ml medium) approximately 18% of Col0 seeds form somatic embryos.
(§2) Approximately 10 surface-sterilized Columbia (Col-0) seeds were added to each well. The seeds were stratified at 4° C. in the dark for two days and then grown in on a rotary shaker (100 rpm/min) on a 16 h/8 h day/night cycle at 25° C. The number of seedlings that formed somatic embryos was counted two weeks later. […] Positive compounds were analysed using ChemMine (http://bioweb.ucr.edu/ChemMineV2/), ChemSpider (http://www.chemspider.com/) and the ZINC database (http://zinc.docking.org) for analogues with a putative biological function. […]

[2] = system: Arabidopsis seedlings; assay: Somatic embryogenesis at increasing 2,4-D concentrations with or without 25 μM C#5 (FIG. 3)
Protocol: All subsequent experiments were performed under the conditions described above, but using 100 ml containers (Greiner) containing 30 ml of medium media using approximately 30 seeds/container. All hormones were ordered from Duchefa and Dicamba from Sigma-Aldrich.
2,4-D is widely used to induce somatic embryogenesis from plant explant. In Arabidopsis immature zygotic embryos occasionally form somatic embryos when grown in basal medium, while germinating embryos or other vegetative tissues are unable to form embryos.

[3] = system: Arabidopsis seedlings; assay: Testing of compounds for somatic embryogenesis activity in the presence of 2,4-D (FIG. 1); conditions: in the presence of 1 μM 2,4-D
Text: as §1, with “embryos. […]” for “embryos.”
as §2, with “The seeds were stratified at 4° C. in the dark for two days and then grown in on a rotary shaker (100 rpm/min) on a 16 h/8 h day/night cycle at 25° C.” left out

| Structure (SMILES) | Col0 seeds that form somatic embryos ([1]; liquid medium containing 1 μM 2,4-D alone, circa 30 seeds in 30 ml medium) | seedlings with somatic embryo development ([1]; at about 10 to about 50 μM compound, compared to circa 5% of seedlings in the control) | somatic embryo formation in the absence of 2,4-D ([2]; 25 μM C#5, 0 μM 2,4-D) | somatic embryo formation at all of the tested 2,4-D concentrations ([2]; 25 μM C#5, 2,4-D up to 2 μM, versus control (2,4-D only)) | threshold concentration of 2,4-D needed to achieve enhanced SE ([2]; using 25 μM of C#5, seedlings grown in containers) | level of SE, as measured by the percentage of seedlings with somatic embryos [3] |
| --- | --- | --- | --- | --- | --- | --- |
| O=C(O)COc1ccc(Cl)cc1Cl [2,4-D, 2,4-dichlorophenoxyacetic acid, reference compound] | approximately 18% |  |  |  |  |  |
| CC1=C(C(=O)OC2CCCC2)C(c2ccncc2)C2=C(CC(C)(C)CC2=O)N1 (stereo not drawn) [C#5, cyclopentyl 2,7,7-trimethyl-5-oxo-4-(4-pyridinyl)-1,4,5,6,7,8-hexahydro-3-quinolinecarboxylate] |  | about 50% | not able to induce somatic embryo formation | did enhance somatic embryo formation | about 0.4 μM | high percentage |
